Data as given in ChEMBL document CHEMBL4622864, “Synthesis and biological evaluation of quinoxaline derivatives as specific c-Met kinase inhibitors” (Bioorg Med Chem Lett, 2020).
One block for each molecule: values may come before it.

Tests used:
MKN-45 [1] = experiment: Antiproliferative activity against human MKN45 cells overexpressing c-MET assessed as reduction in cell proliferation; format: functional, cell-based
[2] = target: T1, Hepatocyte growth factor receptor (Homo sapiens, UniProt P08581); experiment: Inhibition of c-Met (unknown origin) by ADP-Glo kinase assay
T1 sequence (P08581 whole entry): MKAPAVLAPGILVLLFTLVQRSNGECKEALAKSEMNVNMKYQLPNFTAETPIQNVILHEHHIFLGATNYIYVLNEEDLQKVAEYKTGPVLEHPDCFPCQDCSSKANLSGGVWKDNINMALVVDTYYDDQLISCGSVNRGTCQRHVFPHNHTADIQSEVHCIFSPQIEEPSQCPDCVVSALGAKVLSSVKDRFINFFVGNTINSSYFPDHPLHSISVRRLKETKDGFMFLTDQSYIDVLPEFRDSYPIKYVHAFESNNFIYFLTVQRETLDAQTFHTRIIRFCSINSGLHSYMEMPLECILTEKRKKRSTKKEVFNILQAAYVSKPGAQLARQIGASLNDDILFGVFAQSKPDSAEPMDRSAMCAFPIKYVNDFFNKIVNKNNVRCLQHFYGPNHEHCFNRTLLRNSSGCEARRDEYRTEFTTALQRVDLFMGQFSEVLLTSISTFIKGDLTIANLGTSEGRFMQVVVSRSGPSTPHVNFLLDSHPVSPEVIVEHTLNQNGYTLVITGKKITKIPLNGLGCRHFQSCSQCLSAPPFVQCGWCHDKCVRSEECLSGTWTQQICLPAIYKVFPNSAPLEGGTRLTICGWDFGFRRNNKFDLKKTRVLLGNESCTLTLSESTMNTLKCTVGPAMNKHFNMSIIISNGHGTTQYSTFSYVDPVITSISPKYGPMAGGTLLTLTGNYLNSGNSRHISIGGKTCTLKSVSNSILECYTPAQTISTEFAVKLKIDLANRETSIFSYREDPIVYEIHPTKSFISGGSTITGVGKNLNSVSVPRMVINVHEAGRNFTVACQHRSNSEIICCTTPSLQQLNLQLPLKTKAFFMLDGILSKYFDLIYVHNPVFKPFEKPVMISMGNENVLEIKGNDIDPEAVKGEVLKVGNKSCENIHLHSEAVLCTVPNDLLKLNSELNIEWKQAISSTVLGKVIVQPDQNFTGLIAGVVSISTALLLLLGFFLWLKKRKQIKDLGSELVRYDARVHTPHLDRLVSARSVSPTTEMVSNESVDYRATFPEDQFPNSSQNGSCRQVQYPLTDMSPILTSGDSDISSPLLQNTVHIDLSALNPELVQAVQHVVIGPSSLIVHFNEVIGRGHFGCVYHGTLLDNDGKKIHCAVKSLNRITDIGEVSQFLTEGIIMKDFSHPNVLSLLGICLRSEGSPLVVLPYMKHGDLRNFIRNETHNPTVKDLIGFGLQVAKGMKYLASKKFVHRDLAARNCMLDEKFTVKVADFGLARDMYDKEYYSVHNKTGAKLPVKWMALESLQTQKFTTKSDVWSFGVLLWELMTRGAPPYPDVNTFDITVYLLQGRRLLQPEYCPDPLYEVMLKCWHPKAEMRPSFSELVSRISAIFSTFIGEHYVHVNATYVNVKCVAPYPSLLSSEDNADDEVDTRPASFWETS

CYP2C9 = CYP2C9 (Homo sapiens, UniProt P11712); experiment: Inhibition of CYP2C9 (unknown origin) at 10 uM relative to control; format: ADME
CYP3A4 = CYP3A4 (Homo sapiens, UniProt P08684); experiment: Inhibition of CYP3A4 (unknown origin) at 10 uM relative to control; format: ADME
[3] = target: Tyrosine-protein kinase Lck (Homo sapiens) (UniProt P06239); experiment: Inhibition of LCK (unknown origin) at 100 nM relative to control
[4] = target: Fibroblast growth factor receptor 2 (Homo sapiens) (UniProt P21802); experiment: Inhibition of FGFR2 (unknown origin) at 100 nM relative to control
[5] = target: Macrophage colony-stimulating factor 1 receptor (Homo sapiens) (UniProt P07333); experiment: Inhibition of CSF1R (unknown origin) at 100 nM relative to control
[6] = target: ALK tyrosine kinase receptor (Homo sapiens) (UniProt Q9UM73); experiment: Inhibition of ALK (unknown origin) at 10 nM relative to control
[7] = target: Vascular endothelial growth factor receptor 2 (Homo sapiens) (UniProt P35968); experiment: Inhibition of human VEGFR2 at 10 nM relative to control
[8] = target: Vascular endothelial growth factor receptor 3 (Homo sapiens) (UniProt P35916); experiment: Inhibition of VEGFR3 (unknown origin) at 10 nM relative to control
Vascular endothelial growth factor receptor 3 (Homo sapiens), sequence (P35916 whole entry): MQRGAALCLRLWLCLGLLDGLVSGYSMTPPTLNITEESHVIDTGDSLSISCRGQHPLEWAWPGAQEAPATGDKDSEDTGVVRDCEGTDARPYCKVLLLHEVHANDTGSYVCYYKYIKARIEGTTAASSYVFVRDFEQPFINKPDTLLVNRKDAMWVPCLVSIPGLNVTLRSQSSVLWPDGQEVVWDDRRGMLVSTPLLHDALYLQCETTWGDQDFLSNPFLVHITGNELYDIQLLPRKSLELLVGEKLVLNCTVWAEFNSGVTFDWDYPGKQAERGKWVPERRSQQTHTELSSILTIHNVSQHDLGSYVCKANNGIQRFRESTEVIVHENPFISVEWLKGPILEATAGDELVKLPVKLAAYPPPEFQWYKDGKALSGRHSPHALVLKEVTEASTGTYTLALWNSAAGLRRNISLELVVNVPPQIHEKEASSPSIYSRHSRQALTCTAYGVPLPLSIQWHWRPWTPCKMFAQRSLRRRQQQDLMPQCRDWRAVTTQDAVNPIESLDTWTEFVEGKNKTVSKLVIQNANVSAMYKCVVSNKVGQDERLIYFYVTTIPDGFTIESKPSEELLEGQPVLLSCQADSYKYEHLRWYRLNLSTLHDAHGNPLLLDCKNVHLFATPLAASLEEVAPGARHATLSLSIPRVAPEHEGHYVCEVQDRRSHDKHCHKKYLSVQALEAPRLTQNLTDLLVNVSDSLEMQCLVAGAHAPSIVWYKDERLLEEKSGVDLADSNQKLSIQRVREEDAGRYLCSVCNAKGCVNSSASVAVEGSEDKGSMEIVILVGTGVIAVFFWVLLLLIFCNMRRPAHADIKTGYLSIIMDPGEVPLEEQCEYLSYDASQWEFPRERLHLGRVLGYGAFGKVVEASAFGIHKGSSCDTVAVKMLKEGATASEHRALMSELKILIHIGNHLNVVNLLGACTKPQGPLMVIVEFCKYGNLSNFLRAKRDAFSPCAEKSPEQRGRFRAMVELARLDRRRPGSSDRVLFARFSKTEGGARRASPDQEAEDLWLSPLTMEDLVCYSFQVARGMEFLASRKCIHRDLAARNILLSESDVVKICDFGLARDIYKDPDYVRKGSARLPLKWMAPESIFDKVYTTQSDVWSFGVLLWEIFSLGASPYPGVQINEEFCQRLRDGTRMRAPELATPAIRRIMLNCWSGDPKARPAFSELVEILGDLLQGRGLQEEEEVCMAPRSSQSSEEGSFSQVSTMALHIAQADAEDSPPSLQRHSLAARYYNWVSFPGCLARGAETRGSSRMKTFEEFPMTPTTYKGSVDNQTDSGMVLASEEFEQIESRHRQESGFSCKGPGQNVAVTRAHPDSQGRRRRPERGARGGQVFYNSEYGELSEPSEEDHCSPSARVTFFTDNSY

[9] = target: Platelet-derived growth factor receptor alpha (Homo sapiens) (UniProt P16234); experiment: Inhibition of PDGFRalpha (unknown origin) at 10 nM relative to control
[10] = target: Proto-oncogene tyrosine-protein kinase Src (Homo sapiens) (UniProt P12931); experiment: Inhibition of c-SRC (unknown origin) at 10 nM relative to control
Proto-oncogene tyrosine-protein kinase Src (Homo sapiens), sequence (P12931 2-536 limits assumed): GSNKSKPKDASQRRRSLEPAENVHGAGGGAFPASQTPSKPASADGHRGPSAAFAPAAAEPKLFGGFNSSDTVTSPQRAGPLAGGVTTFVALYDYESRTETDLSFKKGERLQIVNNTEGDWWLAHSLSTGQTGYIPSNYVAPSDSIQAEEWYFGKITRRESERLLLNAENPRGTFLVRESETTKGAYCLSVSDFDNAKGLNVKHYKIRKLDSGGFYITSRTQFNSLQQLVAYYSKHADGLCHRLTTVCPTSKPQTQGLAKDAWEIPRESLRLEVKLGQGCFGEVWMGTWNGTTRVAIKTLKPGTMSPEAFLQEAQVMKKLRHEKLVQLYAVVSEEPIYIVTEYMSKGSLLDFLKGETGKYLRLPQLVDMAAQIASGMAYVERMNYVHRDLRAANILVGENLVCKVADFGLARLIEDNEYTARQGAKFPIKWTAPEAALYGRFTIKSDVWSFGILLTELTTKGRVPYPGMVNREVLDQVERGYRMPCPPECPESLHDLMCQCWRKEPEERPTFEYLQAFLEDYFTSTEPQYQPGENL

[11] = target: Fibroblast growth factor receptor 1 (Homo sapiens) (UniProt P11362); experiment: Inhibition of FGFR1 (unknown origin) at 10 nM relative to control
Fibroblast growth factor receptor 1 (Homo sapiens), sequence (P11362 22-822 limits assumed): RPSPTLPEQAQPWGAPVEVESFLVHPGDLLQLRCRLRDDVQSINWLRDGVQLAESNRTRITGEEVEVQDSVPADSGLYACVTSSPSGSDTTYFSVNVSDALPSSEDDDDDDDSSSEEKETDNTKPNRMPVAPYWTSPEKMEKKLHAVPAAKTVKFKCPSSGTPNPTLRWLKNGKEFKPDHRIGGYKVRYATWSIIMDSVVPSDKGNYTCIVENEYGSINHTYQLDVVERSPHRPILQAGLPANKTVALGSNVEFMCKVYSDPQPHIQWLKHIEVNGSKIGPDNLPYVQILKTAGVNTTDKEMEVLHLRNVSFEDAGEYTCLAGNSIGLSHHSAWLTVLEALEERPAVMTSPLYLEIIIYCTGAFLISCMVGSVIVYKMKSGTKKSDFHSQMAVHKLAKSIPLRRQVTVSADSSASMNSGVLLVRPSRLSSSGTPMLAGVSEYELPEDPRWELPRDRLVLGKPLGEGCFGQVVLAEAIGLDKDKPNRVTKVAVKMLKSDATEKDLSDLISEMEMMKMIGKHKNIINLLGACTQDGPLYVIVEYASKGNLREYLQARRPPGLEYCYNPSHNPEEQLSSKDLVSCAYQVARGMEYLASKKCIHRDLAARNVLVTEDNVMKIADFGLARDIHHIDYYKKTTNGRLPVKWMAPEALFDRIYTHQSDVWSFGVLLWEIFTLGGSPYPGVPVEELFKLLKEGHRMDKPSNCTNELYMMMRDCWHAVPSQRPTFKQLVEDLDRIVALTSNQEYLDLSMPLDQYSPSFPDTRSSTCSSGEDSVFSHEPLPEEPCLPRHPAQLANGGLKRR

[12] = target: Receptor-type tyrosine-protein kinase FLT3 (Homo sapiens) (UniProt P36888); experiment: Inhibition of FLT3 (unknown origin) at 100 nM relative to control
[13] = Metabolic stability in rat microsomes assessed as parent compound remaining measured after 30 mins; format: ADME, Microsome; conditions: read-out: Stability
[14] = tested on: Tyrosine-protein kinase ABL1 (Homo sapiens), P00519 [T315I]; experiment: Inhibition of ABL T315I mutant (unknown origin) 10 nM relative to control
[15] = target: T1, Hepatocyte growth factor receptor; experiment: Inhibition of human c-MET at 100 nM relative to control
[16] = target: Vascular endothelial growth factor receptor 1 (Homo sapiens) (UniProt P17948); experiment: Inhibition of VEGFR1 (unknown origin) at 100 nM relative to control
[17] = Metabolic stability in mouse microsomes assessed as parent compound remaining measured after 30 mins; format: ADME, Microsome; conditions: read-out: Stability
[18] = target: Insulin-like growth factor 1 receptor (Homo sapiens) (UniProt P08069); experiment: Inhibition of IGF1R (unknown origin) at 10 nM relative to control
[19] = target: Proto-oncogene tyrosine-protein kinase Src (Homo sapiens) (UniProt P12931); experiment: Inhibition of c-SRC (unknown origin) at 100 nM relative to control
[20] = tested on: Tyrosine-protein kinase ABL1 (Homo sapiens), P00519 [T315I]; experiment: Inhibition of ABL T315I mutant (unknown origin) 100 nM relative to control
[21] = target: Macrophage-stimulating protein receptor (Homo sapiens) (UniProt Q04912); experiment: Inhibition of RON (unknown origin) at 10 nM relative to control
[22] = target: Tyrosine-protein kinase receptor UFO (Homo sapiens) (UniProt P30530); experiment: Inhibition of AXL (unknown origin) at 100 nM relative to control
Tyrosine-protein kinase receptor UFO (Homo sapiens), sequence (P30530 whole entry): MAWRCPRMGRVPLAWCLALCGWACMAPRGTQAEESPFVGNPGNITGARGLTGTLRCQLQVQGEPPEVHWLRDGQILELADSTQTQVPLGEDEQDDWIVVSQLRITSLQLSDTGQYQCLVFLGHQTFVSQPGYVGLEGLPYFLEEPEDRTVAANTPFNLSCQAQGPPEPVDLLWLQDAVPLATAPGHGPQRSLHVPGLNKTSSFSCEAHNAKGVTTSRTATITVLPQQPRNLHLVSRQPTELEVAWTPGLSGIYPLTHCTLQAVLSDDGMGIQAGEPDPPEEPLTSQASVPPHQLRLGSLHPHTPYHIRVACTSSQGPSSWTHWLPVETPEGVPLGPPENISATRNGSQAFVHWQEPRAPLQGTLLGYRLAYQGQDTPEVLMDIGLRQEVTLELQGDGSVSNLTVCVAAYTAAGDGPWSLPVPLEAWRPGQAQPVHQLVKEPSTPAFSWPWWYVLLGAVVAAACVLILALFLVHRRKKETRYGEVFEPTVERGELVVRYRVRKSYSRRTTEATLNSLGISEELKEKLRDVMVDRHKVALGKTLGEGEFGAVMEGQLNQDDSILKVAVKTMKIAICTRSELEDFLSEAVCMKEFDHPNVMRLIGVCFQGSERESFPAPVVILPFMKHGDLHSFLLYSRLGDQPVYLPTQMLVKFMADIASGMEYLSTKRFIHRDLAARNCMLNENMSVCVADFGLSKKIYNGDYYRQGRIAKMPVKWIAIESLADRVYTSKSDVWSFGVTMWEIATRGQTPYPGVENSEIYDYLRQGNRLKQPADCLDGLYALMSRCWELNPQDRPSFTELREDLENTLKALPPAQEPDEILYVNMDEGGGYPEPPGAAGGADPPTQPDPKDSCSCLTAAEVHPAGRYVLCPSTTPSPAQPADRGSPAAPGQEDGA

MKN-45 [23] = experiment: Antitumor activity against human MKN45 cells xenografted in po dosed nude mouse assessed as tumor growth inhibition administered once daily for 14 days; format: functional, organism-based
[24] = target: Platelet-derived growth factor receptor beta (Homo sapiens) (UniProt P09619); experiment: Inhibition of human PDGFRbeta at 100 nM relative to control
[25] = target: T1, Hepatocyte growth factor receptor; experiment: Inhibition of human c-MET at 10 nM relative to control
[26] = target: Proto-oncogene tyrosine-protein kinase receptor Ret (Homo sapiens) (UniProt P07949); experiment: Inhibition of RET (unknown origin) at 100 nM relative to control
[27] = target: Angiopoietin-1 receptor (Homo sapiens) (UniProt Q02763); experiment: Inhibition of human TIE2 at 100 nM relative to control
[28] = Metabolic stability in human microsomes assessed as parent compound remaining measured after 30 mins; format: ADME, Microsome; conditions: read-out: Stability
MKN-45 [29] = experiment: Antitumor activity against human MKN45 cells xenografted in nude mouse assessed as tumor growth inhibition at 20 mg/kg, po administered once daily for 14 days relative to control; format: functional; conditions: MKN-45, po, 336 h, read-out: TGI
CYP2C19 = CYP2C19 (Homo sapiens, UniProt P33261); experiment: Inhibition of CYP2C19 (unknown origin) at 10 uM relative to control; format: ADME
[30] = target: Mast/stem cell growth factor receptor Kit (Homo sapiens) (UniProt P10721); experiment: Inhibition of C-kit (unknown origin) at 10 nM relative to control
[31] = target: Angiopoietin-1 receptor (Homo sapiens) (UniProt Q02763); experiment: Inhibition of human TIE2 at 10 nM relative to control
[32] = target: Macrophage colony-stimulating factor 1 receptor (Homo sapiens) (UniProt P07333); experiment: Inhibition of CSF1R (unknown origin) at 10 nM relative to control
CYP1A2 = CYP1A2 (Homo sapiens, UniProt P05177); experiment: Inhibition of CYP1A2 (unknown origin) at 10 uM relative to control; format: ADME
[33] = target: Macrophage-stimulating protein receptor (Homo sapiens) (UniProt Q04912); experiment: Inhibition of RON (unknown origin) at 100 nM relative to control
CYP2D6 = CYP2D6 (Homo sapiens, UniProt P10635); experiment: Inhibition of CYP2D6 (unknown origin) at 10 uM relative to control; format: ADME
[34] = target: Mast/stem cell growth factor receptor Kit (Homo sapiens) (UniProt P10721); experiment: Inhibition of C-kit (unknown origin) at 100 nM relative to control
[35] = target: Tyrosine-protein kinase receptor UFO (Homo sapiens) (UniProt P30530); experiment: Inhibition of AXL (unknown origin) at 10 nM relative to control
[36] = target: Platelet-derived growth factor receptor alpha (Homo sapiens) (UniProt P16234); experiment: Inhibition of PDGFRalpha (unknown origin) at 100 nM relative to control
[37] = target: Vascular endothelial growth factor receptor 3 (Homo sapiens) (UniProt P35916); experiment: Inhibition of VEGFR3 (unknown origin) at 100 nM relative to control
[38] = target: Fibroblast growth factor receptor 1 (Homo sapiens) (UniProt P11362); experiment: Inhibition of FGFR1 (unknown origin) at 100 nM relative to control

IC50 (MKN-45 [1]): 227 nM
SMILES: C[C@@H](Oc1cncc(-c2cnn(C3CCN(C)CC3)c2)c1)c1c(Cl)ccc(F)c1Cl

IC50 (MKN-45 [1]): 117 nM
SMILES: CC(=O)N1CCC(n2cc(-c3cncc(O[C@H](C)c4c(Cl)ccc(F)c4Cl)c3)cn2)CC1

IC50 (MKN-45 [1]): 243 nM
SMILES: C[C@@H](Oc1cncc(-c2cnn(C3CCN(S(C)(=O)=O)CC3)c2)c1)c1c(Cl)ccc(F)c1Cl

IC50 (MKN-45 [1]): 113 nM
SMILES: C[C@@H](Oc1cncc(-c2cnn(C3CCN(CC(N)=O)CC3)c2)c1)c1c(Cl)ccc(F)c1Cl

IC50 (MKN-45 [1]): 735 nM
SMILES: C[C@@H](Oc1ccc2ncc(-c3cnn(C)c3)nc2c1)c1c(Cl)ccc(F)c1Cl

IC50 (MKN-45 [1]): 252 nM
SMILES: CC(=O)OCCn1cc(-c2cnc3ccc(O[C@H](C)c4c(Cl)ccc(F)c4Cl)cc3n2)cn1

IC50 (MKN-45 [1]): 196 nM
SMILES: C[C@@H](Oc1ccc2ncc(-c3cnn(CCO)c3)nc2c1)c1c(Cl)ccc(F)c1Cl

IC50 (MKN-45 [1]): 77 nM
SMILES: CC(=O)N1CCC(n2cc(-c3cnc(F)c(O[C@H](C)c4c(Cl)ccc(F)c4Cl)c3)cn2)CC1

IC50 (MKN-45 [1]): 797 nM | IC50 [2]: 92 nM
SMILES: C[C@H](Oc1cncc(-c2cnn(C3CCNCC3)c2)c1)c1c(Cl)ccc(F)c1Cl

IC50 (MKN-45 [1]): 132 nM
SMILES: CC(C)N1CCC(n2cc(-c3cncc(O[C@H](C)c4c(Cl)ccc(F)c4Cl)c3)cn2)CC1

inhibition at 10 µM (CYP2C9): 79% | inhibition at 10 µM (CYP3A4): 76% | inhibition [3]: 47% | inhibition [4]: 0% | inhibition [5]: 67% | IC50 (MKN-45 [1]): 175 nM | inhibition [6]: 31% | inhibition [7]: -4% | IC50 [2]: 6 nM | inhibition [8]: -5% | inhibition [9]: 3% | inhibition [10]: -10% | inhibition [11]: -7% | inhibition [12]: 8% | remaining at 0.5 h [13]: 85% | inhibition [14]: 43% | inhibition [15]: 100% | inhibition [16]: -1% | remaining at 0.5 h [17]: 96% | inhibition [18]: -4% | inhibition [19]: -7% | inhibition [20]: 63% | inhibition [21]: -9% | inhibition [22]: 75% | inhibition [24]: -10% | inhibition [25]: 80% | inhibition [26]: -3% | inhibition [27]: 33% | remaining at 0.5 h [28]: 94% | inhibition at 10 µM (CYP2C19): 63% | inhibition [30]: 0% | inhibition [31]: 2% | inhibition [32]: 15% | inhibition at 10 µM (CYP1A2): 55% | inhibition [33]: 49% | inhibition at 10 µM (CYP2D6): 28% | inhibition [34]: 4% | inhibition [35]: 17% | inhibition [36]: -4% | inhibition [37]: 0% | inhibition [38]: -5%
SMILES: C[C@@H](Oc1cncc(-c2cnn(C3CCNCC3)c2)c1)c1c(Cl)ccc(F)c1Cl
TGI (MKN-45 [23]): Dose-dependent effect | inhibition in vivo at 20 mg/kg (MKN-45 [29]): 48%

IC50 (MKN-45 [1]): 306 nM
SMILES: C[C@@H](Oc1cncc(-c2cnn(C3CCN(CC4CC4)CC3)c2)c1)c1c(Cl)ccc(F)c1Cl

IC50 (MKN-45 [1]): 114 nM
SMILES: C[C@@H](Oc1cc(-c2cnn(C3CCNCC3)c2)cnc1F)c1c(Cl)ccc(F)c1Cl

IC50 (MKN-45 [1]): 9.1 to 38 nM
SMILES: C[C@@H](Oc1cc(-c2cnn(C3CCNCC3)c2)cnc1N)c1c(Cl)ccc(F)c1Cl [CRIZOTINIB]
inhibition in vivo at 20 mg/kg (MKN-45 [29]): 29%
